The values that follow are results of earlier work, collected in publication PMC4414144, “Plasmin releases the anti-tumor peptide from the NC1 domain of collagen XIX” (Oncotarget, 2015).

Data set [1] deals with tumor angiogenesis. The following applies: in vitro and in vivo; ref [26]; cited from earlier work. The source says: (§1) Type XIX collagen is one of the minor basement membrane-associated collagens. It was discovered in 1992, isolated from rhabdomyosarcoma cell lines and named collagen Y [16]. This discovery was completed in 1993 by Myers et al who gave it the name of RH collagen. It is a 400 kDa homotrimer, composed by the association of three α1(XIX) chains. Each chain comprises 1142 residues, including six non-collagenous domains (NC1-NC6) separated by five collagenous domains (Col1-Col5). This collagen presents high structural homology with other types of collagens IX, XII, XIV, X ...

Data set [2] relates to tumor cells. The following applies: in vitro; ref [25]; cited from earlier work.
Source text: as §1

In data set [3] the test system is experimental murine melanoma. The following applies: experimental murine melanoma model; ref [26]; cited from earlier work.
Source text: as §1

In the case of “NPEDCLYPVSHAHQRTGGN [NC1(XIX), C-terminal NC1(XIX) domain (…), 19 amino acids]”, in data set [1], the Tumor angiogenesis result was “inhibited tumor angiogenesis in vitro and in vivo”. In data set [2], the “Tumor cell migration and invasion” value was “inhibited the migration and invasion capacities of tumor cells in vitro”. In addition, the “Inhibition of in vivo tumor growth” value in data set [3] was “strong inhibition”.
